In patent publication US5696136A, “Method of treating psychosis using azaheterocyclylmethyl” (Bayer Aktiengesellschaft, priority 1991, dated 1997):
Where a name gives a salt, the structure may show the parent alone. Read-outs that look alike come from different tables or passages of the source.

What was measured:
[1] = molecular target: dopamine D2 receptor (Rattus norvegicus, UniProt P61169); test: Dopamine D2 receptor test; binding of 3H-sulpiride to membranes from the striatum of rats
Procedure: In this test the binding of the selective D2 receptor antagonist ^3 H-sulpiride to membranes from the striatum of rats is measured. Compounds which bind to dopamine D2 receptors inhibit the binding of ^3 H-sulpiride in a concentration-dependent manner. IC50 values are determined from the displacement curves and the inhibition constants Ki calculated from these values.

[2] = molecular target: T1, 5-HT1A receptor (Bos taurus, UniProt F6Q2H9); test: Affinity for the 5-HT1A receptor; binding of 3H-ipsapiron to 5-HT1A receptors in calf hippocampus membranes
T1 construct: 5-HT1A receptors in calf hippocampus membranes; from tissue; host or cells: calf hippocampus membranes
T1 sequence (F6Q2H9 1-422): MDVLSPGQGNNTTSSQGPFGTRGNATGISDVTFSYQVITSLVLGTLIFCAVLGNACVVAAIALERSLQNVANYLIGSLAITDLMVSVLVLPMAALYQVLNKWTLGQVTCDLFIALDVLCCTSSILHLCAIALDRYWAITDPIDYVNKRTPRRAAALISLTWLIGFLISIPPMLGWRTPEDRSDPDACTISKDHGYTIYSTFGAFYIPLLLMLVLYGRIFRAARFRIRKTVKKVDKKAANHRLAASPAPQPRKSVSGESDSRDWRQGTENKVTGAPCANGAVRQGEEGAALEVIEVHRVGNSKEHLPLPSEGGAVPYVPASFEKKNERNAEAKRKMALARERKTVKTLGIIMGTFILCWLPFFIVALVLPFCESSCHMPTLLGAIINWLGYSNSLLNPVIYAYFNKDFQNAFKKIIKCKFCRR
Procedure: Affinity for the 5-HT1A receptor
[W. U. Dompert et al., Naunyn-Schmiedeberg's Arch. Pharmacol. (1985), 328, 467-470].
In this test the binding of ^3 H-ipsapiron to 5-HT1A receptors in calf hippocampus membranes is measured.

[3] = molecular target: 5-HT1 receptor; test: Affinity for the 5-HT1 receptor; receptor-binding studies using calf hippocampus membrane preparations, 3H-serotonin; settings: calf hippocampus membranes
Source text: Affinity for the 5-HT1 receptor
The high affinity of the compounds according to the invention for 5-hydroxytryptamine receptors of subtype 1 is shown in Table 1 by way of example. The values shown are data which have been determined from receptor-binding studies using calf hippocampus membrane preparations. To this end, ^3 H-serotonin was used as radioactively labelled ligand.

[4] = tested on: α-adrenergic; settings: hydrochloride; literature; cited from earlier work
[5] = 3H-sulpiride, rat striatum membranes, Ki calculated from IC50, read-out: Ki

dopamine D2 receptor, sequence (P61169 whole entry): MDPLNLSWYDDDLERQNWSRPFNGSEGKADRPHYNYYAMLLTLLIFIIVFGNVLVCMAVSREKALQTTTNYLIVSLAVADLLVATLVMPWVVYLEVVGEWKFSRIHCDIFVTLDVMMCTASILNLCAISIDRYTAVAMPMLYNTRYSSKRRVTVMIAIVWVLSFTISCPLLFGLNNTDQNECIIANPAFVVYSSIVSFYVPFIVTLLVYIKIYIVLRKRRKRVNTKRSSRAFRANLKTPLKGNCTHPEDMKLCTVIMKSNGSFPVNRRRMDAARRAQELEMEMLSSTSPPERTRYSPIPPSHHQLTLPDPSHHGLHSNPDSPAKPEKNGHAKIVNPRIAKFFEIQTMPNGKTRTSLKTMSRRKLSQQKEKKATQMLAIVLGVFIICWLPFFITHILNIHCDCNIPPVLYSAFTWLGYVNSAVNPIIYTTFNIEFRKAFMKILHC

| Structure (SMILES) | Ki [1, 5] [nM] | Ki [2] [nM] | Ki [3] [nM] | further results |
| --- | --- | --- | --- | --- |
| O=c1[nH]c2ccccc2n1C1CCN(CC2CCc3ccccc3O2)CC1 (centres unmarked) [Example 3, 1-(Chroman-2-yl-methyl)-4-(2-oxo-1-benzimidazolyl)-piperidine] |  |  |  | Ki [1]: 0.4 nM |
| COc1cccc2c1OC(CN1CC=C(n3c(=O)[nH]c4ccccc43)CC1)CC2 (centres unmarked) [Example 6] | 2.3 | 1.4 |  |  |
| COc1cccc2c1OC(CN1CCC(CN3C(=O)c4ccccc4C3=O)CC1)CC2 (centres unmarked) [Example 2, 2-[4-(Isoindol-1,3-dion-2-yl)methyl-piperidin-1-yl)methyl-8-methoxychroman oxalate hydrate] | 1.8 |  | 3 |  |
| COc1cccc2c1OC(CN1CCC(n3c(=O)[nH]c4ccccc43)CC1)CC2 (centres unmarked) [Example 4] |  |  | 2 |  |
| O=c1[nH]c2ccccc2n1C1=CCN(CC2CCc3ccccc3O2)CC1 (centres unmarked) [Example 5] |  | 1.5 |  |  |
| c1ccc2c(c1)CCC(CN1CCCCC1)O2 (centres unmarked) [1-[(3,4-dihydro-2H-1-benzopyran-2-yl)methyl]piperidine] |  |  |  | α-adrenergic-blocking effect [4]: α-adrenergic-blocking effect |
